Legend:
PKC-η = biological target: T1, PKC-η (Homo sapiens, UniProt P24723); experiment: Kinase inhibition screening (Luceome); type: biochemical; settings: 10 μM
T1 construct: purchased Luceome Biotechnologies (Tucson, Ariz.)
Description: (§1) It is well established that dysfunctional and unregulated kinase activity plays significant roles in cancer initiation and progression. […] Inspection of the data provides several interesting observations. […] These inhibitory effects at this concentration are consistent with their measured IC50 values that are also in the μM range (Table 1). In addition, several kinases display overlapping inhibitory responses to both gold(I) compounds. Many of these are of particular interest since they are involved in cancer initiation and/or progression. For example, the Aurora kinase family members, Aurora A and Aurora B, as well as the MARK2 and MARK3 kinases function during mitosis to regulate cell division. These kinases are important therapeutic targets as their activities are often deregulated in many types of cancers. Other kinases such as RPS6KA3 and MLK3 are involved in the MAP kinase and JNK pathways which are also important in cancer progression.

SNF1LK = biological target: T2, SNF1LK (Homo sapiens, UniProt P57059); experiment: Kinase inhibition screening (Luceome); type: biochemical; settings: 10 μM
T2 construct: purchased Luceome Biotechnologies (Tucson, Ariz.)
Description: as §1

SNARK = biological target: T3, SNARK (Homo sapiens, UniProt Q9H093); experiment: Kinase inhibition screening (Luceome); type: biochemical; settings: 10 μM
T3 construct: purchased Luceome Biotechnologies (Tucson, Ariz.)
Description: as §1

SYK = biological target: T4, SYK (Homo sapiens, UniProt P43405); experiment: Kinase inhibition screening (Luceome); type: biochemical; settings: 10 μM
T4 construct: purchased Luceome Biotechnologies (Tucson, Ariz.)
Description: as §1

AURKA = biological target: T5, AURKA (Homo sapiens, UniProt O14965); experiment: Kinase inhibition screening (Luceome); type: biochemical; settings: 10 μM
T5 construct: purchased Luceome Biotechnologies (Tucson, Ariz.)
Description: as §1

PKD2 = biological target: T6, PKD2 (Homo sapiens, UniProt Q9BZL6); experiment: Kinase inhibition screening (Luceome); type: biochemical; settings: 10 μM
T6 construct: purchased Luceome Biotechnologies (Tucson, Ariz.)
Description: as §1

SRC = biological target: T7, SRC (Homo sapiens, UniProt P12931); experiment: Kinase inhibition screening (Luceome); type: biochemical; settings: 10 μM
T7 construct: purchased Luceome Biotechnologies (Tucson, Ariz.)
Description: as §1

PDGFRB = biological target: T8, PDGFRB (Homo sapiens, UniProt P09619); experiment: Kinase inhibition screening (Luceome); type: biochemical; settings: 10 μM
T8 construct: purchased Luceome Biotechnologies (Tucson, Ariz.)
Description: as §1

FLT1 = biological target: T9, FLT1 (Homo sapiens, UniProt P17948); experiment: Kinase inhibition screening (Luceome); type: biochemical; settings: 10 μM
T9 construct: purchased Luceome Biotechnologies (Tucson, Ariz.)
Description: as §1

CAMK1D = biological target: T10, CAMK1D (Homo sapiens, UniProt Q8IU85); experiment: Kinase inhibition screening (Luceome); type: biochemical; settings: 10 μM
T10 construct: purchased Luceome Biotechnologies (Tucson, Ariz.)
Description: as §1

CHEK1 = biological target: T11, CHEK1 (Homo sapiens, UniProt O14757); experiment: Kinase inhibition screening (Luceome); type: biochemical; settings: 10 μM
T11 construct: purchased Luceome Biotechnologies (Tucson, Ariz.)
Description: as §1

P38-γ = biological target: T12, P38-γ (Homo sapiens, UniProt P53778); experiment: Kinase inhibition screening (Luceome); type: biochemical; settings: 10 μM
T12 construct: purchased Luceome Biotechnologies (Tucson, Ariz.)
Description: as §1

SLK = biological target: T13, SLK (Homo sapiens, UniProt Q9H2G2); experiment: Kinase inhibition screening (Luceome); type: biochemical; settings: 10 μM
T13 construct: purchased Luceome Biotechnologies (Tucson, Ariz.)
Description: as §1

MLK1 = biological target: T14, MLK1 (Homo sapiens, UniProt P80192); experiment: Kinase inhibition screening (Luceome); type: biochemical; settings: 10 μM
T14 construct: purchased Luceome Biotechnologies (Tucson, Ariz.)
Description: as §1

PRS6KA1 = biological target: T15, PRS6KA1 (Homo sapiens, UniProt Q15418); experiment: Kinase inhibition screening (Luceome); type: biochemical; settings: 10 μM
T15 construct: purchased Luceome Biotechnologies (Tucson, Ariz.)
Description: as §1

PKAC-α = biological target: T16, PKAC-α (Homo sapiens, UniProt P17612); experiment: Kinase inhibition screening (Luceome); type: biochemical; settings: 10 μM
T16 construct: purchased Luceome Biotechnologies (Tucson, Ariz.)
Description: as §1

YES1 = biological target: T17, YES1 (Homo sapiens, UniProt P07947); experiment: Kinase inhibition screening (Luceome); type: biochemical; settings: 10 μM
T17 construct: purchased Luceome Biotechnologies (Tucson, Ariz.)
Description: as §1

BLK = biological target: T18, BLK (Homo sapiens, UniProt P51451); experiment: Kinase inhibition screening (Luceome); type: biochemical; settings: 10 μM
T18 construct: purchased Luceome Biotechnologies (Tucson, Ariz.)
Description: as §1

AKT2 = biological target: T19, AKT2 (Homo sapiens, UniProt P31751); experiment: Kinase inhibition screening (Luceome); type: biochemical; settings: 10 μM
T19 construct: purchased Luceome Biotechnologies (Tucson, Ariz.)
Description: as §1

AKT3 = biological target: T20, AKT3 (Homo sapiens, UniProt Q9Y243); experiment: Kinase inhibition screening (Luceome); type: biochemical; settings: 10 μM
T20 construct: purchased Luceome Biotechnologies (Tucson, Ariz.)
Description: as §1

TNK2 = biological target: T21, TNK2 (Homo sapiens, UniProt Q07912); experiment: Kinase inhibition screening (Luceome); type: biochemical; settings: 10 μM
T21 construct: purchased Luceome Biotechnologies (Tucson, Ariz.)
Description: as §1

VEGFR2 = biological target: T22, VEGFR2 (Homo sapiens, UniProt P35968); experiment: Kinase inhibition screening (Luceome); type: biochemical; settings: 10 μM
T22 construct: purchased Luceome Biotechnologies (Tucson, Ariz.)
Description: as §1

CAMK2D = biological target: T23, CAMK2D (Homo sapiens, UniProt Q13557); experiment: Kinase inhibition screening (Luceome); type: biochemical; settings: 10 μM
T23 construct: purchased Luceome Biotechnologies (Tucson, Ariz.)
Description: as §1

MLK3 = biological target: T24, MLK3 (Homo sapiens, UniProt Q16584); experiment: Kinase inhibition screening (Luceome); type: biochemical; settings: 10 μM
T24 construct: purchased Luceome Biotechnologies (Tucson, Ariz.)
Description: as §1

AKT1 = biological target: T25, AKT1 (Homo sapiens, UniProt P31749); experiment: Kinase inhibition screening (Luceome); type: biochemical; settings: 10 μM
T25 construct: purchased Luceome Biotechnologies (Tucson, Ariz.)
Description: as §1

CLK1 = biological target: T26, CLK1 (Homo sapiens, UniProt P49759); experiment: Kinase inhibition screening (Luceome); type: biochemical; settings: 10 μM
T26 construct: purchased Luceome Biotechnologies (Tucson, Ariz.)
Description: as §1

HeLa cells [1] = experiment: Fluorescence microscopy, propidium iodide uptake and annexin V staining; type: cell-based; settings: 50 μM; for annexin V staining: 12 hours; for PI staining / uptake: 24 hours
Description: Cells were plated at 75,000-125,000/ml for 24 hours. […] Alexa fluro 488 Annexin V and Propidium Iodide were added to each well and images were taken on Leica CTR 6500 microscope using green (480/40 nm) and red (560/40 nm) excitation band pass filters.

HeLa cells [2] = settings: for fold more sensitive to IR exposure than cells treated with IR alone: HeLa pre-treated 24 hour with compound 3 (4 μM) or compound 4 (7 μM)
Description: HeLa cells were plated at a density of 250,000-300,000 cells/mL. After 24 hr cells, the cells were irradiated in a dose dependent manner (0-4 Gy) using a ^137Cs gamma source. After treatment, the cells were trypsinized and plated at a density between 300-4000 cells in 60 mm dishes. Cells were allowed to grow colonies (1 colony≧50 cells) for 10-14 days, stained with 0.25% crystal violet, and manually counted to measure the number of colonies. Survival fractions were normalized against positive controls (colony formation with no radiation) and plotted as the log percent survival versus dose of radiation. Each experiment was performed an average of four (4) times with cells propagated on several different days.
In this case, we measured the effects of combining these (phosphine)gold(I) indoles with ionizing radiation (IR), a widely used therapy used to treat solid tumors. […] After this time frame, media containing the (phosphine)gold(I) indole was removed and replaced with fresh media. The cells were then irradiated in a dose-dependent fashion from 0 to 6 Gy. Cell viability was assessed using a clonogenic assay that measures colony formation and thus accurately defines the cytotoxic effects of IR exposure. […] The initial linear phase is particularly important as this reflects repair of non-lethal damage inflicted by clinically-relevant doses of IR (˜2 Gy).

T1 sequence (P24723 whole entry): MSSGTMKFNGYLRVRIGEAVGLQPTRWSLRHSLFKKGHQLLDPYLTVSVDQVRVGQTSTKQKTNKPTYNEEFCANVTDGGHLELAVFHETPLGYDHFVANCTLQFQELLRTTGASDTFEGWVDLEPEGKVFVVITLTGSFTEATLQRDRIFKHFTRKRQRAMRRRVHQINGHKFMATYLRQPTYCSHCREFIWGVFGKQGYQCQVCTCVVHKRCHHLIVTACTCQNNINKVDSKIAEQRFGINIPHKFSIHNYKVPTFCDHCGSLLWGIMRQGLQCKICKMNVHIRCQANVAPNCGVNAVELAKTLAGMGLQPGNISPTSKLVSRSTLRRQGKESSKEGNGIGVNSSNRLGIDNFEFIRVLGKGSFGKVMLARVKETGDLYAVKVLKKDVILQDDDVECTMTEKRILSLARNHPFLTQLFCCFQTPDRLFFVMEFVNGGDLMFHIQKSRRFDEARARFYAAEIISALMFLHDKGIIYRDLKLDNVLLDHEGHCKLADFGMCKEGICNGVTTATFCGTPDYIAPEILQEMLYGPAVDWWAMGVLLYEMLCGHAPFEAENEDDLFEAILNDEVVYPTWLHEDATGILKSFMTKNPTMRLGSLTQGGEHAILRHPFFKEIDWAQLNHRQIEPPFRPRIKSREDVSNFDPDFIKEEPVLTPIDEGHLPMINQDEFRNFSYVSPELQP
T7 sequence (P12931 whole entry): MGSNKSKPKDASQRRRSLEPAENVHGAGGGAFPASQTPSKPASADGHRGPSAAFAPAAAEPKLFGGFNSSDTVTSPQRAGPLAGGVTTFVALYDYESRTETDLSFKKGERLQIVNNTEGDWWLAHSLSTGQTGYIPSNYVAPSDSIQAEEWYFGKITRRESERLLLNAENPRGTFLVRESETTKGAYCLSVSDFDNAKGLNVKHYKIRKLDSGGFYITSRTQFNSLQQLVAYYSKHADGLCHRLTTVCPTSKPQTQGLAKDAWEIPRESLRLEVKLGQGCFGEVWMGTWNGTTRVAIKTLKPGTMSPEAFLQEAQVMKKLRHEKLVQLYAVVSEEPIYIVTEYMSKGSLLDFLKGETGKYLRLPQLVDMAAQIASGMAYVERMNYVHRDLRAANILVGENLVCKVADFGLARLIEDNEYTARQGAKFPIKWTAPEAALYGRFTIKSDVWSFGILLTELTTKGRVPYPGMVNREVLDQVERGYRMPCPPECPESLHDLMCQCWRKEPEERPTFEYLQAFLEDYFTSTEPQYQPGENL
T20 sequence (Q9Y243 whole entry): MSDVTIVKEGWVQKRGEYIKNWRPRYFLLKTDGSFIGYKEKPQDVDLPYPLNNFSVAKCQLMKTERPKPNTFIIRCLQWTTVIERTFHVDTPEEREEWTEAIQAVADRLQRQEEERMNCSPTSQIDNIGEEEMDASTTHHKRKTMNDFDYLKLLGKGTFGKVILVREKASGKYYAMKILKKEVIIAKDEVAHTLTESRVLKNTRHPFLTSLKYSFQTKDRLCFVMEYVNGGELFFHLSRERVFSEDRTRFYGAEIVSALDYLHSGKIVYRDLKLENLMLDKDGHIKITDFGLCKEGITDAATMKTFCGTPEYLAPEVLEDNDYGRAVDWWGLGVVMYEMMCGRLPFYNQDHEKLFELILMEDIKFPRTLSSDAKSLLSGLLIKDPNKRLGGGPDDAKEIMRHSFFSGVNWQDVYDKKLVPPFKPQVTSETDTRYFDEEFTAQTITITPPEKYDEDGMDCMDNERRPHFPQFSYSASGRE
T22 sequence (P35968 20-1356): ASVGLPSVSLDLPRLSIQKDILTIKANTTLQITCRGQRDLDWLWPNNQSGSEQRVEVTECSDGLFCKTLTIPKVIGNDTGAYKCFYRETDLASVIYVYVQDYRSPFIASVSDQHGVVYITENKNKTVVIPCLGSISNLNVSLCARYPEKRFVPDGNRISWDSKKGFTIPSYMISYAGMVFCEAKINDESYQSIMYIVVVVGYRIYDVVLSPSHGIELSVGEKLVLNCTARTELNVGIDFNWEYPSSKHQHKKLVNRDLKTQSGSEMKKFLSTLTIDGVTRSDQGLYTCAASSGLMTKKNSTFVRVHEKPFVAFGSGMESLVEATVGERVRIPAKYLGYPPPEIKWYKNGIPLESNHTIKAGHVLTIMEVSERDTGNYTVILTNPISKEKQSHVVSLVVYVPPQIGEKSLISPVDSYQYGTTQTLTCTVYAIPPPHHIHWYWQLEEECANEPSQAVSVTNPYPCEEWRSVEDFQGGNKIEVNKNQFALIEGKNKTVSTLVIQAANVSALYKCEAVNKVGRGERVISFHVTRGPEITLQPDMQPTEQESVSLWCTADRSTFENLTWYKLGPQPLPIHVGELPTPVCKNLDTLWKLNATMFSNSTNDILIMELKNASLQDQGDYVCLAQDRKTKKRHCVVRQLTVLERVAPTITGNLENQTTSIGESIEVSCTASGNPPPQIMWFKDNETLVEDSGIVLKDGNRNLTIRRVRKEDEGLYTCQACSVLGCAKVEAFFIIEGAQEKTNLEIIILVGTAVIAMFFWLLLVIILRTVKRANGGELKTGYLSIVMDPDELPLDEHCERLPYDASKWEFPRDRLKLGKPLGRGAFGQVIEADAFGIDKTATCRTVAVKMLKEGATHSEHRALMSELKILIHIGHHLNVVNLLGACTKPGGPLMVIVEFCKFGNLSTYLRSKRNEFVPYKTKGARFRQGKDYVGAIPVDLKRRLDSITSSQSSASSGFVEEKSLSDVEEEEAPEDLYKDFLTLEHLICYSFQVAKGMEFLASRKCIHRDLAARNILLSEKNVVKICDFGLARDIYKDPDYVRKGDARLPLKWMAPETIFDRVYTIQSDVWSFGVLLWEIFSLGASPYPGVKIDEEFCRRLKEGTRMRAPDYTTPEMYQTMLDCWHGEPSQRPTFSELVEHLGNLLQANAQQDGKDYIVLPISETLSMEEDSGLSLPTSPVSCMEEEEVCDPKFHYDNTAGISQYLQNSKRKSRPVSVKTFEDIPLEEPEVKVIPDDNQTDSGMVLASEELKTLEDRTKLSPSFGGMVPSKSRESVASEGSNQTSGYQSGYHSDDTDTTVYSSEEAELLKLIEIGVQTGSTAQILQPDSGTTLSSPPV
T25 sequence (P31749 whole entry): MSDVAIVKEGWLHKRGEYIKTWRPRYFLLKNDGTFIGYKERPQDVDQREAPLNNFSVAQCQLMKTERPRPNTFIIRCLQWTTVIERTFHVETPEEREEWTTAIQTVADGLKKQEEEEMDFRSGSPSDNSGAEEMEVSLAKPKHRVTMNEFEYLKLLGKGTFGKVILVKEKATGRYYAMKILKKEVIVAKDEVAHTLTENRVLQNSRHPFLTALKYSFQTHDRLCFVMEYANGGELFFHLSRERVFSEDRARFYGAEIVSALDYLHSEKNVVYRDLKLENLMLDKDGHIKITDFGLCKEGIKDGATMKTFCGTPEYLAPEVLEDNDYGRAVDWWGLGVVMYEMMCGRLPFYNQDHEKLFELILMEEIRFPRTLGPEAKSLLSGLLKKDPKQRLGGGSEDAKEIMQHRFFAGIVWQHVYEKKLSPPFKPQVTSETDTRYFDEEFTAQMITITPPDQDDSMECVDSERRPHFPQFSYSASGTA
T13 sequence (Q9H2G2 whole entry): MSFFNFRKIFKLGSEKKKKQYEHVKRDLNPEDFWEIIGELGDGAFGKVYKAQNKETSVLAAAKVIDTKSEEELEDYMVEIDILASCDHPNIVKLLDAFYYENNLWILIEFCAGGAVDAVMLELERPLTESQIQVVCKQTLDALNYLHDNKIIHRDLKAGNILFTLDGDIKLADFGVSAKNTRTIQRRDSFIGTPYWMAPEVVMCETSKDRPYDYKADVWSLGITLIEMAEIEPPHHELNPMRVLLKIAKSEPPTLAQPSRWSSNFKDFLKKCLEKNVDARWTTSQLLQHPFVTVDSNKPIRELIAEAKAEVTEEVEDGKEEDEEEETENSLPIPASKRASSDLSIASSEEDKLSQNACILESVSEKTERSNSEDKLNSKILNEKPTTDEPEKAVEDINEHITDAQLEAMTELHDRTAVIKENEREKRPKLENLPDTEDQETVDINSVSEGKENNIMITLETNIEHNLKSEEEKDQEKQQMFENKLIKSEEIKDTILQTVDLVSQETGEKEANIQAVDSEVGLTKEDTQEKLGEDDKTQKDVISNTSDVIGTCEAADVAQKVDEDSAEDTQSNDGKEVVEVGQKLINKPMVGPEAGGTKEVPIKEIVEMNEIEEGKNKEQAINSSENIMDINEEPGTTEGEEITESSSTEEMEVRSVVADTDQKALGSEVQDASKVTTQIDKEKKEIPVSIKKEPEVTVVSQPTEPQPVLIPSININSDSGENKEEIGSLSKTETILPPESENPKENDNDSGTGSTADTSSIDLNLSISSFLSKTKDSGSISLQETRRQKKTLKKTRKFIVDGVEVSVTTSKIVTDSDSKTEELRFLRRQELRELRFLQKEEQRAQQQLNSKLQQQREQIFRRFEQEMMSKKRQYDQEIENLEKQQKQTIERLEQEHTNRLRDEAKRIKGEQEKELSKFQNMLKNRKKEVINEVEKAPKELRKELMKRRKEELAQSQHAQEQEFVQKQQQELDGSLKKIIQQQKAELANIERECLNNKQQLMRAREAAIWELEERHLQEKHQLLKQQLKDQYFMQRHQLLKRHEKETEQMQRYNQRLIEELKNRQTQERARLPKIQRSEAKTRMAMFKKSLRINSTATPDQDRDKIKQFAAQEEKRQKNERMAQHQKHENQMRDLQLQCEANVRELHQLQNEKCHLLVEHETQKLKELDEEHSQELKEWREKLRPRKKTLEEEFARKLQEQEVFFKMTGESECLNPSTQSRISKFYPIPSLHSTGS

Row | SMILES | % Inhibition PKC-η (PKC-η) [%] | % Inhibition SNF1LK (SNF1LK) [%] | % Inhibition SNARK (SNARK) [%] | % Inhibition SYK (SYK) [%] | % Inhibition AURKA (AURKA) [%] | % Inhibition PKD2 (PKD2) [%] | % Inhibition SRC (SRC) [%] | % Inhibition PDGFRB (PDGFRB) [%] | % Inhibition FLT1 (FLT1) [%] | % Inhibition CAMK1D (CAMK1D) [%] | % Inhibition CHEK1 (CHEK1) [%] | % Inhibition P38-γ (P38-γ) [%] | % Inhibition SLK (SLK) [%] | % Inhibition MLK1 (MLK1) [%] | % Inhibition PRS6KA1 (PRS6KA1) [%] | % Inhibition PKAC-α (PKAC-α) [%] | % Inhibition YES1 (YES1) [%] | % Inhibition BLK (BLK) [%] | % Inhibition AKT2 (AKT2) [%] | % Inhibition AKT3 (AKT3) [%] | other results
1 | CC(C)(C)OC(=O)n1ccc2c[c]([Au-][P+](C3CCCCC3)(C3CCCCC3)C3CCCCC3)ccc21 [Compound 4, 5-{Tricyclohexylphosphine aurate(I)}-tert-butyl1H-indole-1-carboxylate] | 0 | 40.6 | 39.5 | 40.7 | 41.7 | 3.8 | 5.2 | 15.2 | 9.4 | 0 | 0 | 0 | 19.6 | 42.2 | 0 | 12.4 | 31.7 | 0 | 33.6 | 0 | % Inhibition TNK2 (TNK2): 2.2%; % Inhibition VEGFR2 (VEGFR2): 5.8%; % Inhibition CAMK2D (CAMK2D): 0%; % Inhibition MLK3 (MLK3): 43%; % Inhibition AKT1 (AKT1): 0%; % Inhibition CLK1 (CLK1): 0%; annexin V staining (HeLa cells [1]): induce early stage apoptosis; PI staining / uptake (HeLa cells [1]): more intense PI staining; fold more sensitive to IR exposure than cells treated with IR alone (HeLa cells [2]): ~4 fold
2 | CC(C)(C)OC(=O)n1ccc2c[c]([Au-][P+](c3ccccc3)(c3ccccc3)c3ccccc3)ccc21 [Compound 3, 5-{Triphenylphosphine aurate(I)}-tert-butyl1H-indole-1-carboxylate] | 3.2 | 0 | 0 | 21.6 | 26.7 | 0 | 14.3 | 8.1 | 18.9 | 0 | 0 | 0 | 0 | 32.5 | 0 | 0 | 0 | 0 | 25.8 | 0 | % Inhibition TNK2 (TNK2): 0%; % Inhibition VEGFR2 (VEGFR2): 0%; % Inhibition CAMK2D (CAMK2D): 0%; % Inhibition MLK3 (MLK3): 31.2%; % Inhibition AKT1 (AKT1): 0%; % Inhibition CLK1 (CLK1): 0%; annexin V staining (HeLa cells [1]): induce early stage apoptosis; PI staining / uptake (HeLa cells [1]): significant PI uptake is not observed; fold more sensitive to IR exposure than cells treated with IR alone (HeLa cells [2]): ~4 fold; dose-modifying factor (HeLa cells [2]; ionizing radiation, HeLa): 4

From patent publication US9821173B2, “Anti-cancer agents and methods of use” (Case Western Reserve University, priority 2013, dated 2017)
